The text below walks through data of patent publication US7879563B2, “Method of screening for a carnitine transporter agonist or antagonist and its uses” (Sanofi-Aventis Deutschland GmbH, priority 2004, dated 2011).

The structures appear in SMILES notation.

Holding throughout (type): cell-based
Assay [1] deals with T1, carnitine transporter comprising the amino acid sequence SEQ ID NO: 2 (Mus musculus, UniProt Q9D687).
T1 sequence (Q9D687 1-634): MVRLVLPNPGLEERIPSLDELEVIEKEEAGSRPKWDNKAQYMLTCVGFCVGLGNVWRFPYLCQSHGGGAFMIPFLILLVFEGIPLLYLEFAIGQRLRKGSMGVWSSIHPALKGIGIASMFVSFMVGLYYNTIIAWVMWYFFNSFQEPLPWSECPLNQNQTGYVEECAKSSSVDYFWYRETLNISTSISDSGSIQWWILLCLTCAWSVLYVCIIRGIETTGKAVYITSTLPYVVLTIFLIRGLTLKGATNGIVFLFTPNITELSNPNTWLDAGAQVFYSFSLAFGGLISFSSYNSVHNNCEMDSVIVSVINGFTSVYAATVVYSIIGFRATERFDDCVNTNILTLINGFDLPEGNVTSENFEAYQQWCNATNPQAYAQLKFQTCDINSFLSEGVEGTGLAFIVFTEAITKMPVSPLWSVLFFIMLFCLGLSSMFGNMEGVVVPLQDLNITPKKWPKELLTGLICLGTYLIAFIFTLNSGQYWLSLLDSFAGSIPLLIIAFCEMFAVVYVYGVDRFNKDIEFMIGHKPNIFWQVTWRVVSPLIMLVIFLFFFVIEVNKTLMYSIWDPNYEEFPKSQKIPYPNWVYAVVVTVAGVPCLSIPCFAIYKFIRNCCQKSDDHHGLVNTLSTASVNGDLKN
The experiment in a line: Transport activity of the mouse kidney and intestinal carnitine transporter.

Assay [2] deals with T2, carnitine transporter comprising the amino acid sequence SEQ ID NO: 3 (Rattus norvegicus, UniProt Q2A865, F276Y/R32K/S186P).
T2 sequence (Q2A865 1-634 R32K/S186P/F276Y): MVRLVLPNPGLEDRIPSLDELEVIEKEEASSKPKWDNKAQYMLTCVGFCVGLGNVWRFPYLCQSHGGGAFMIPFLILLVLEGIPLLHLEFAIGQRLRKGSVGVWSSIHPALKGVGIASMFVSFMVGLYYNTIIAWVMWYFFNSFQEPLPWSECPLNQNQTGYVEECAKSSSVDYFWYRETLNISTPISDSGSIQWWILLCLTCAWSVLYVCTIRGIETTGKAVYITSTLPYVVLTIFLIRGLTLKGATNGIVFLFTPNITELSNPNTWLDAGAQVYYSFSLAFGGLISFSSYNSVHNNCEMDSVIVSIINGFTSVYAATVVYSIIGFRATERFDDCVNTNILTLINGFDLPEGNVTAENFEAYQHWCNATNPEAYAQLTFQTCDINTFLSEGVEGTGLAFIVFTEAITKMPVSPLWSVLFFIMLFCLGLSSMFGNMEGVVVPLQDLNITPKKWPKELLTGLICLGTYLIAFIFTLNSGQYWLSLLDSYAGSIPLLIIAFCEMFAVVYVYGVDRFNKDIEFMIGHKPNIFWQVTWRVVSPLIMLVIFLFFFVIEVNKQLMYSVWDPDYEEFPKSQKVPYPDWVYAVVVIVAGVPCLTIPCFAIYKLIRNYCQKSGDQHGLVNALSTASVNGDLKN
The experiment in a line: Transport activity of the rat kidney and intestinal carnitine transporter.

For assay [3], the target named is T3, carnitine transporter comprising the amino acid sequence SEQ ID NO: 1 (Homo sapiens, UniProt Q695T7).
T3 construct: expressed in transfected cells; host or cells: Xenopus laevis oocytes injected with cRNA
T3 sequence (Q695T7 1-634): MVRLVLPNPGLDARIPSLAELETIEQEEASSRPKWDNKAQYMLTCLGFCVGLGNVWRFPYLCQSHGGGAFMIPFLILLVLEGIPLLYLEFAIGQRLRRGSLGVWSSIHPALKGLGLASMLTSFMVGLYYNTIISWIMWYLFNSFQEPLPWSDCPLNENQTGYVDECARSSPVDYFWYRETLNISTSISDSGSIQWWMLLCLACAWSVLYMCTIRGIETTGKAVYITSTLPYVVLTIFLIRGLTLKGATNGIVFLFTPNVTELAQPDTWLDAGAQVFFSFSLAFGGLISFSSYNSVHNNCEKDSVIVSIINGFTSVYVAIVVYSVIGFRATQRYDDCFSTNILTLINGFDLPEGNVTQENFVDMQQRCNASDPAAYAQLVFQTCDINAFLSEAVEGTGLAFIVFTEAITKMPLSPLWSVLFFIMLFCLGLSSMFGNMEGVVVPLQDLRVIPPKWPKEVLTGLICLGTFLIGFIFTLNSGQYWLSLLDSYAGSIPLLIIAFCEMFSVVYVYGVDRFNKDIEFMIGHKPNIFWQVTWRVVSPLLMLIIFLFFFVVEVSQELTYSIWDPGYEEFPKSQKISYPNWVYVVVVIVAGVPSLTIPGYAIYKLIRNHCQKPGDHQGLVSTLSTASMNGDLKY
Nature of the assay: Tracer flux transport measurement in Xenopus laevis oocytes injected with cRNA comprising SEQ ID NO: 4. To be noted: for kinetics of transport compared with the substrate L-carnitine (FIG. 2): SEQ ID NO: 1, other substrates. The method, then: The transport measurements of radioactively labeled compounds were executed using Xenopus laevis oocytes in the so-called “tracer flux method”, wherein the transport rate of substrates across the oocyte membrane into the cytosol is determined.
A Xenopus laevis oocyte was injected with a cRNA molecule comprising SEQ ID NO: 4.
Injected oocytes were kept in the culture medium ORi comprising gentamycin (50 mg/L) at 18° C. until the measurement of substrate uptake. Injured, acutely altered or later heavily damaged cells were discarded.
After 72 hours the oocyte was used for screening for a carnitine transporter agonist or antagonist.
Polysterene wells treated with oocyte homogenate were filled with 200 μl substrate solution. The oocytes were first washed two times with ORi solution, before use in the determination. 8 to 10 oocytes were used in a reaction mixture, in order to enable statistical evaluations. After the addition of the oocytes into the substrate solution the reaction mixture was softly mixed and incubated. The incubation was carried through at 22° C. for 1 hour. In order to stop the reaction, 1 ml of ice cold ORi was added.
The oocytes were washed four times in 15 ml ice cold ORi. Subsequently the oocytes were individually transferred into a 6 ml counter vial. The oocyte plasma membrane was disrupted by adding 100 μl […] solution. The vials were slightly agitated to disrupt the plasma membrane. The plasma membrane was completely disrupted by agitation for 30 to 45 minutes. The lysates were mixed with 2 ml of a scintillation cocktail. The radioactivity of the lysates was determined in a liquid scintillation counter comprising a correction for the luminescence and an external standard. Each vial was counted for 5 minutes.
In order to determine the substrate concentration after the dropping in of the oocytes, 2×10 μl solution were removed from the reaction mixture, 100 μl 5% SDS solution was added and evaluations with the counter were carried out. The obtained values were considered in the calculation of the transport rates.
For the determination of concentration-dependent substrate uptake serial dilutions of the investigated substrate were prepared and the radioactivity was distributed, such that in each reaction mixture between 10000 and 20000 cpm were counted in the supernatant. For the KM determination the substrate uptake was measured for 1 hour. In addition, the measurement was carried through using H2O-injected oocytes, in order to determine the background, i.e. the unspecific substrate uptake, for example mediated by diffusion or by endogenous transport proteins. The transport rates were calculated and graphically plotted against the substrate concentration and adapted mathematically according to the Michaelis-Menten equation.

On to `C[N+](C)(C)C[C@H](O)CC(=O)[O-]` [L-carnitine], for which the “kinetics of transport compared with FIG. 2 (SEQ ID NO: 1)” value in assay [1] and in assay [2] was “comparable kinetics” each time. For `NCCc1c[nH]c2ccc(O)cc12` [serotonin], the “kinetics of transport compared with the substrate L-carnitine (FIG. 2)” value in assay [3] is “comparable kinetics”. Same read-out and setting: under `NC[C@H](O)c1ccc(O)c(O)c1` [noradrenaline] stands “comparable kinetics”. As to `CN(CC(=O)O)C(=N)N` [creatine], the “transport of the substrate” value in assay [3] (SEQ ID NO: 1), in assay [1] and in assay [2] was “transport” throughout. For the same compound, in assay [3], the “kinetics of transport compared with the substrate L-carnitine (FIG. 2)” value is given as “comparable kinetics”. As to `C[n+]1ccc(-c2ccccc2)cc1` [methylphenylpyridinium], the “kinetics of transport compared with the substrate L-carnitine (FIG. 2)” value in assay [3] is reported as “comparable kinetics”.
